Test results as given in patent US10022461B2, “Pyrrolo[2,3-C]pyridines as imaging agents for neurofibrilary tangles” (MERCK SHARP & DOHME CORP., priority 2014, dated 2018).

target: tau (Homo sapiens, UniProt P10636); test: displacement tau binding assay in AD brain homogenates with [^3H]-6; settings: Table 1, displacement of [^3H]-6 (0.25 nM)
Description: The frozen human brain samples of Alzheimer's disease (AD) were purchased from Analytic Biological Services Inc. They were postmortem tissue from donors with clinical diagnosis of AD. As much of the white matter was dissected out of the frontal cortex in order to enrich the tissue preparations for gray matter. Brain homogenates of gray matter enriched frontal cortex were prepared by homogenizing the tissue in ice cold Phosphate Buffered Saline (PBS), pH 7.4 at 80 mg wet weight tissue per 1 mL for 45 seconds at 4° C. on setting 16 of Polytron. The homogenate was further diluted with ice cold PBS to 30 mg wet weight tissue per 1 mL and homogenized for an additional minute as described above. Homogenates were aliquoted in 5 ml/tube and store at −70° C. until use. […] Brain homogenates were diluted to 0.5 mg/mL from original 30 mg/mL volume in Assay Buffer, and 200 μl were added to the assay plate for a final concentration of 100 μg wet weight/assay tube. [^3H]-6 was prepared at […] final concentration in Assay Buffer plus 20% DMSO and 25 μl was added to the assay plate for final assay concentration of 0.25 nM. The assay plate was incubated at room temperature (25° C.) for 90 minutes. […] Filter plates were dried for 1 hour in a vacuum oven and 50 μl/well MicroScint-20 were added. Plates were counted 1 min per well by Packard Topcount. Total amount of radioligand used in the assay was determined by counting 25 μl of 10× ligand stock. […] Tau Ki data for representative compounds of the invention are found in Table 1.

tau, sequence (P10636 2-758 limits assumed): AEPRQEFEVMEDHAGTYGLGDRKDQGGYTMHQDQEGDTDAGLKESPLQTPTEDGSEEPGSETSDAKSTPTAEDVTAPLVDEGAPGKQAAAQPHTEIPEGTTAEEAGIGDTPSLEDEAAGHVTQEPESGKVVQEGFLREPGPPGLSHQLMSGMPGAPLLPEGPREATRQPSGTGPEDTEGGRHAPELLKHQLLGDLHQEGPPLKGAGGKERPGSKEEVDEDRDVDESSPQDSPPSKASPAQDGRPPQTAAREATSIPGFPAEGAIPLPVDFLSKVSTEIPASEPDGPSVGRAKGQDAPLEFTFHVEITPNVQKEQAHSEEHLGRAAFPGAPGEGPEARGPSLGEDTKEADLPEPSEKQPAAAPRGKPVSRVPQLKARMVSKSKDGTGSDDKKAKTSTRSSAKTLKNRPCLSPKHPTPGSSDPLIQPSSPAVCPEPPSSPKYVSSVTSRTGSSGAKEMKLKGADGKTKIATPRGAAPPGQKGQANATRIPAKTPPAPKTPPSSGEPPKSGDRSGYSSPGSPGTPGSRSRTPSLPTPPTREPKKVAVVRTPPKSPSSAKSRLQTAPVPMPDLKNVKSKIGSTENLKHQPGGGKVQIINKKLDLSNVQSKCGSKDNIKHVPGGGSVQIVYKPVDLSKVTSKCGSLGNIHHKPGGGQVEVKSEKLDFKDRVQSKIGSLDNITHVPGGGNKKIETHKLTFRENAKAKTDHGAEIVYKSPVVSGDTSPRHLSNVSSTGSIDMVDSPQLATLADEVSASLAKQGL

Row | Structure (SMILES) | Ki [nM]
1 | c1cc2cnc(-n3ccc4ccncc43)cc2cn1 [Compound 26, 3-(1H-pyrrolo[2,3-c]pyridin-1-yl)-2,6-naphthyridine] | 2.27
2 | OC1CCN(c2ccc(-n3ccc4ccncc43)nc2)CC1 [Compound 42, 1-(6-(1H-pyrrolo[2,3-c]pyridin-1-yl)pyridin-3-yl)piperidin-4-ol] | 71.1
3 | FCCOc1cccc2cc(-n3ccc4ccncc43)ncc12 [Compound 67] | 6.75
4 | Cn1ccc(-c2ccc(-n3ccc4ccncc43)nc2)n1 [Compound 63] | 2.84
5 | FCCOc1cccc2cnc(-n3ccc4ccncc43)cc12 [Compound 71] | 172
6 | Cc1cc2cnc(-n3ccc4ccncc43)cc2o1 [Compound 23, 2-methyl-6-(1H-pyrrolo[2,3-c]pyridin-1-yl)furo[3,2-c]pyridine] | 2.1
7 | CC#Cc1cnc(-n2ccc3ccncc32)cc1CF [Compound 21, 1-(4-(fluoromethyl)-5-(prop-1-ynyl)pyridin-2-yl)-1H-pyrrolo[2,3-c]pyridine] | 4.1
8 | FCCn1ccc(-c2cnc(-n3ccc4ccncc43)nc2)n1 [Compound 29, 1-(5-(1-(2-fluoroethyl)-1H-pyrazol-3-yl)pyrimidin-2-yl)-1H-pyrrolo[2,3-c]pyridine] | 2.41
9 | Fc1nc(-n2ccc3ccncc32)ccc1-c1cccnc1 [Compound 37, 1-(2-fluoro-3,3′-bipyridin-6-yl)-1H-pyrrolo[2,3-c]pyridine] | 19.7
10 | Fc1ccc2cnc(-n3ccc4ccncc43)nc2c1 [Compound 68] | 8.45
11 | Fc1ccc(-c2ccc(-n3ccc4ccncc43)nc2)cn1 [Compound 60] | 2.04
12 | FCCOc1ccc2nc(-n3ccc4ccncc43)ncc2c1 [Compound 69] | 9.33
13 | Fc1ccc2nc(-n3ccc4ccncc43)ncc2c1 [Compound 62] | 2.55
14 | FC1CCN(c2ccc(-n3ccc4ccncc43)nc2)CC1 [Compound 43, 1-(5-(4-fluoropiperidin-1-yl)pyridin-2-yl)-1H-pyrrolo[2,3-c]pyridine] | 10
15 | COc1ccc(NC(=O)c2ccc(-n3ccc4ccncc43)nc2)cc1 [Compound 34, N-(4-methoxyphenyl)-6-(1H-pyrrolo[2,3-c]pyridin-1-yl)nicotinamide] | 3.83
16 | Oc1ccc2nc(-n3ccc4ccncc43)ncc2c1 [Compound 24-5, 2-(1H-pyrrolo[2,3-c]pyridin-1-yl)quinazolin-6-ol] | 11.1
17 | Cn1cnc(-c2ccc(-n3ccc4ccncc43)nc2)c1 [Compound 65] | 3.42
18 | ClCCC1CCN(c2ccc(-n3ccc4ccncc43)nc2)CC1 [Compound 31, 1-(5-(4-(2-chloroethyl)piperidin-1-yl)pyridin-2-yl)-1H-pyrrolo[2,3-c]pyridine] | 2.88
19 | CN(CCO)c1ccc2cnc(-n3ccc4ccncc43)cc2c1 [Compound 66] | 4.07
20 | CC#Cc1cnc(-n2ccc3ccncc32)cc1CO [Compound 21-4, (5-(prop-1-ynyl)-2-(1H-pyrrolo[2,3-c]pyridin-1-yl)pyridin-4-yl)methanol] | 3.35
21 | c1cnc(-c2ccc(-n3ccc4ccncc43)nc2)cn1 [Compound 64] | 3.17
22 | OCCC1CCN(c2ccc(-n3ccc4ccncc43)nc2)CC1 [Compound 31-1, 2-(1-(6-(1H-pyrrolo[2,3-c]pyridin-1-yl)pyridin-3-yl)piperidin-4-yl)ethanol] | 3.54
23 | COc1cccc2cnc(-n3ccc4ccncc43)cc12 [Compound 70] | 44.4
24 | FCCCNc1ccc(-n2ccc3ccncc32)nc1 [Compound 35, N-(3-fluoropropyl)-6-(1H-pyrrolo[2,3-c]pyridin-1-yl)pyridin-3-amine] | 3.19
25 | Fc1ccc2cnc(-n3ccc4ccncc43)cc2n1 [Compound 40, 2-fluoro-7-(1H-pyrrolo[2,3-c]pyridin-1-yl)-1,6-naphthyridine] | 52.7
26 | c1cc2ccn(-c3cc4c(cn3)CCCN4)c2cn1 [Compound 39, 7-(1H-pyrrolo[2,3-c]pyridin-1-yl)-1,2,3,4-tetrahydro-1,6-naphthyridine] | 10.8

Continued, values first:

Row | Ki [nM] | Structure (SMILES)
27 | 1.55 | COc1ccc2nc(-n3ccc4ccncc43)ncc2c1 [Compound 24-4, 6-methoxy-2-(1H-pyrrolo[2,3-c]pyridin-1-yl)quinazoline]
28 | 1.43 | CC#Cc1cnc(-n2ccc3ccncc32)cc1F [Compound 22, 1-(4-fluoro-5-(prop-1-ynyl)pyridin-2-yl)-1H-pyrrolo[2,3-c]pyridine]
29 | 1.41 | Fc1cccc(-c2ccc(-n3ccc4ccncc43)nc2)n1 [Compound 91]
30 | 1.4 | CCNc1cc(-c2ccc(-n3ccc4ccncc43)nc2)ccn1 [Compound 94]
31 | 1.32 | Cn1cc(-c2ccc(-n3ccc4ccncc43)nc2)cn1 [Compound 58]
32 | 1.23 | FCOc1ccc2cnc(-n3ccc4ccncc43)cc2c1 [Compound 57]
33 | 1.16 | Oc1cccc2cc(-n3ccc4ccncc43)ncc12 [Compound 56]
34 | 1.14 | c1ccc(-c2ccc(-n3ccc4ccncc43)nc2)nc1 [Compound 101]
35 | 1.06 | Nc1ccc(-c2ccc(-n3ccc4ccncc43)nc2)cn1 [Compound 100]
36 | 1.05 | Fc1cccc2cnc(-n3ccc4ccncc43)cc12 [Compound 54]
37 | 0.98 | CC#Cc1ccc(-n2ccc3ccncc32)nc1 [Compound 52]
38 | 0.96 | CN(C)c1ccc(-c2ccc(-n3ccc4ccncc43)nc2)cn1 [Compound 95]
39 | 0.76 | CNc1cccc(-c2ccc(-n3ccc4ccncc43)nc2)c1 [Compound 72]
40 | 0.75 | Ic1ccc2cnc(-n3ccc4ccncc43)cc2c1 [Compound 20, 6-iodo-3-(1H-pyrrolo[2,3-c]pyridin-1-yl)isoquinoline]
41 | 0.75 | C#Cc1cnc(-n2ccc3ccncc32)cc1C [Compound 50]
42 | 0.69 | CNc1ccc(-c2ccc(-n3ccc4ccncc43)nc2)cn1 [Compound 88]
43 | 0.67 | Oc1cccc2cnc(-n3ccc4ccncc43)cc12 [Compound 49]
44 | 0.62 | Cn1ccc2cc(-n3ccc4ccncc43)ncc21 [Compound 19, 1′-methyl-1,5′-bi(1H-pyrrolo[2,3-c]pyridine)]
45 | 0.55 | Nc1cc(-c2ccc(-n3ccc4ccncc43)nc2)ccn1 [Compound 99]
46 | 0.54 | c1ccc2cc(-n3ccc4ccncc43)ncc2c1 [Compound 6, 3-(1H-pyrrolo[2,3-c]pyridin-1-yl)isoquinoline]
47 | 0.53 | Oc1ccc2cc(-n3ccc4ccncc43)ncc2c1 [Compound 15, 3-(1H-pyrrolo[2,3-c]pyridin-1-yl)isoquinolin-7-ol]
48 | 0.48 | Oc1ccc2cnc(-n3ccc4ccncc43)cc2c1 [Compound 75]
49 | 0.48 | c1cc2ccn(-c3cc4cc[nH]c4cn3)c2cn1 [Compound 8, 1-(1H-pyrrolo[2,3-c]pyridin-5-yl)-1H-pyrrolo[2,3-c]pyridine]
50 | 0.43 | Nc1c(F)ccc2cnc(-n3ccc4ccncc43)cc12 [Compound 18, 6-fluoro-3-(1H-pyrrolo[2,3-c]pyridin-1-yl)isoquinolin-5-amine]
51 | 0.41 | FCCOc1ccc2cc(-n3ccc4ccncc43)ncc2c1 [Compound 16, 7-(2-fluoroethoxy)-3-(1H-pyrrolo[2,3-c]pyridin-1-yl)isoquinoline]
52 | 0.4 | Nc1cccc2cnc(-n3ccc4ccncc43)cc12 [Compound 11-5, 3-(1H-pyrrolo[2,3-c]pyridin-1-yl)isoquinolin-5-amine]
53 | 0.33 | CNc1ccc2cnc(-n3ccc4ccncc43)cc2c1 [Compound 14-1, N-methyl-3-(1H-pyrrolo[2,3-c]pyridin-1-yl)isoquinolin-6-amine]
54 | 0.29 | COc1ccc2cc(-n3ccc4ccncc43)ncc2c1 [Compound 13, 7-methoxy-3-(1H-pyrrolo[2,3-c]pyridin-1-yl)isoquinoline]
55 | 0.22 | Fc1ccc2cnc(-n3ccc4ccncc43)cc2c1 [Compound 9, 6-fluoro-3-(1H-pyrrolo[2,3-c]pyridin-1-yl)isoquinoline]

same assay, conditions: Table 2, displacement of [^3H]-6 (0.25 nM)

Row | Ki [nM] | Structure (SMILES)
56 | 1.17 | Nc1cc(I)cc2cnc(-n3ccc4ccncc43)cc12 [Compound 127]
57 | 0.784 | Nc1cc(F)c2cnc(-n3ccc4ccncc43)cc2c1 [Compound 113]
58 | 24.5 | Nc1ccc2cnc(-n3ccc4ccncc43)cc2c1I [Compound 118]
59 | 208 | Nc1ccc(I)c2cnc(-n3ccc4ccncc43)cc12 [Compound 123]
60 | 1.07 | Nc1cc(I)cc2cc(-n3ccc4ccncc43)ncc12 [Compound 124]
61 | 10000 | Nc1cccc2cnc(-n3ccc4cc(F)ncc43)cc12 [Compound 106]
62 | 4.03 | COc1cc2ccn(-c3cc4cc(F)ccc4cn3)c2cn1 [Compound 130]
63 | 93.8 | Nc1ccc(I)c2cc(-n3ccc4ccncc43)ncc12 [Compound 120]
64 | 0.423 | Nc1cc2cc(-n3ccc4ccncc43)ncc2cc1F [Compound 109]
65 | 0.677 | Nc1ccc2cc(-n3ccc4ccncc43)ncc2c1F [Compound 108]
66 | 1.77 | Nc1ccc2cc(-n3ccc4ccncc43)ncc2c1I [Compound 122]
67 | 6.21 | Nc1cc(I)c2cc(-n3ccc4ccncc43)ncc2c1 [Compound 128]
68 | 0.438 | Nc1c(I)ccc2cnc(-n3ccc4ccncc43)cc12 [Compound 119]
69 | 18.6 | Nc1cc(I)c2cnc(-n3ccc4ccncc43)cc2c1 [Compound 125]
